Experiments:
[1] = molecular target: isolated recombinant JAK2 kinase domain (Homo sapiens (Human), UniProt O60674); assay: JAK2 enzyme assay (Caliper LabChip, Ki); assay type: biochemical; details: isolated recombinant JAK2 kinase domain, 0.2 nM enzyme, ATP 25 μM
[2] = molecular target: isolated recombinant JAK1 kinase domain (Homo sapiens (Human), UniProt P23458); assay: JAK1 enzyme assay (Caliper LabChip, Ki); assay type: biochemical; details: isolated recombinant JAK1 kinase domain, 1.5 nM enzyme, ATP 25 μM
Sequence of isolated recombinant JAK1 kinase domain (P23458 875-1153): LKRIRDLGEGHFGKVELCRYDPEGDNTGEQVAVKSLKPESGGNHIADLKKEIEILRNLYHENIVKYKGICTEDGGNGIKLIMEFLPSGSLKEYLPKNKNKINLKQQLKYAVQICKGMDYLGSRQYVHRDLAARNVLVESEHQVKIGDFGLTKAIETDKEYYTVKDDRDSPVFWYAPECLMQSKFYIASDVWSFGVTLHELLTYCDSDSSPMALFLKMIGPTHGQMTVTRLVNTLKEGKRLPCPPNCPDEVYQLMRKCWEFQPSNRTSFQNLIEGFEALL

Sequence of isolated recombinant JAK2 kinase domain (O60674 849-1124): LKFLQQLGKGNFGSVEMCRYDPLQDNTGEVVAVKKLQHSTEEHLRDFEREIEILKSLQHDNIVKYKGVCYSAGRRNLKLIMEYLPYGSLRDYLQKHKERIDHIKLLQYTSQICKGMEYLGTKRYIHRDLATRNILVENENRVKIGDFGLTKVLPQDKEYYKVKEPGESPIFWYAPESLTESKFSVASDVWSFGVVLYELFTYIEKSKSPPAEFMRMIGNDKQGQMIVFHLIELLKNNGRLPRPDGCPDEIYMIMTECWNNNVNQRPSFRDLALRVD

| SMILES | Ki [1] [nM] | Ki [2] [nM] |
| --- | --- | --- |
| CN1CCN(C(=O)Cn2cc(Nc3nc4c(N5CC6CCC(C5)N6C(=O)CC(C)(C)C(F)(F)F)cccn4n3)cn2)CC1 [Example 77, 4,4,4-trifluoro-3,3-dimethyl-1-[3-[2-[[1-[2-(4-methylpiperazin-1-yl)-2-oxo-ethyl]pyrazol-4-yl]amino]-[1,2,4]triazolo[1,5-a]pyridin-8-yl]-3,8-diazabicyclo[3.2.1]octan-8-yl]butan-1-one] | 2.3 | 1.7 |
| CN1CCN(C(=O)Cn2cc(Nc3nc4c(N5CC6CCC(C5)N6C(=O)c5cncs5)cccn4n3)cn2)CC1 [Example 78, 1-(4-methylpiperazin-1-yl)-2-[4-[[8-[8-(thiazole-5-carbonyl)-3,8-diazabicyclo[3.2.1]octan-3-yl]-[1,2,4]triazolo[1,5-a]pyridin-2-yl]amino]pyrazol-1-yl]ethanone] | 1.3 | 0.8 |
| COC(=O)N1CCN(CC2CCN(C(=O)Cn3cc(Nc4nc5c(N6CC7CCC(C6)N7C(=O)CCC(F)(F)F)cccn5n4)cn3)CC2)CC1 [Example 79, methyl 4-[[1-[2-[4-[[8-[8-(4,4,4-trifluorobutanoyl)-3,8-diazabicyclo[3.2.1]octan-3-yl]-[1,2,4]triazolo[1,5-a]pyridin-2-yl]amino]pyrazol-1-yl]acetyl]-4-piperidyl]methyl]piperazine-1-carboxylate] | 1.6 | 0.8 |
| COC(=O)C1C2CCC1CN(c1cccn3nc(Nc4cnn(CC(=O)N5CCN(C)CC5)c4)nc13)C2 (stereo not drawn) [Example 80, methyl 3-[2-[[1-[2-(4-methylpiperazin-1-yl)-2-oxo-ethyl]pyrazol-4-yl]amino]-[1,2,4]triazolo[1,5-a]pyridin-8-yl]-3-azabicyclo[3.2.1]octane-8-carboxylate] | 3.1 | 1.5 |
| CN(C)C(=O)CN1CCN(CC2CCN(C(=O)Cn3cc(Nc4nc5c(N6CC7CCC(C6)N7C(=O)N6CC(C(F)(F)F)C6)cccn5n4)cn3)CC2)CC1 [Example 81, N,N-dimethyl-2-[4-[[1-[2-[4-[[8-[8-[3-(trifluoromethyl)azetidine-1-carbonyl]-3,8-diazabicyclo[3.2.1]octan-3-yl]-[1,2,4]triazolo[1,5-a]pyridin-2-yl]amino]pyrazol-1-yl]acetyl]-4-piperidyl]methyl]piperazin-1-yl]acetamide] | 0.8 | 1 |
| O=C(Cn1cc(Nc2nc3c(N4CC5CCC(C4)N5C(=O)[C@H]4C[C@@H](C(F)(F)F)C4)cccn3n2)cn1)N1CCN(C2CSC2)CC1 [Example 82] | 0.3 | 0.4 |
| O=C(Cn1cc(Nc2nc3c(N4CC5CCC(C4)N5C(=O)[C@H]4C[C@H](C(F)(F)F)C4)cccn3n2)cn1)N1CCN(C2CSC2)CC1 [Example 83, 1-[4-(thietan-3-yl)piperazin-1-yl]-2-[4-[[8-[8-[3-(trifluoromethyl)cyclo-butanecarbonyl]-3,8-diazabicyclo[3.2.1]octan-3-yl]-[1,2,4]triazolo[1,5-a]pyridin-2-yl]amino]pyrazol-1-yl]ethanone] | 4 | 1.6 |
| CN1CCN(C(=O)Cn2cc(Nc3nc4c(N5C[C@H]6CC[C@@H](C5)[C@H]6OCc5cccnc5)cccn4n3)cn2)CC1 [Example 84, 1-(4-methylpiperazin-1-yl)-2-[4-[[8-[(1S,5R)-8-(3-pyridylmethoxy)-3-azabicyclo[3.2.1]octan-3-yl]-[1,2,4]triazolo[1,5-a]pyridin-2-yl]amino]pyrazol-1-yl]ethanone] | 0.8 | 0.4 |
| CN1CCN(C(=O)Cn2cc(Nc3nc4c(N5CC6CCC(C5)N6Cc5ccccc5)cccn4n3)cn2)CC1 [Example 86, 2-[4-[[8-(8-benzyl-3,8-diazabicyclo[3.2.1]octan-3-yl)-[1,2,4]triazolo[1,5-a]alpyridin-2-yl]amino]pyrazol-1-yl]-1-(4-methylpiperazin-1-yl)ethanone] | 105 | 19.2 |
| CN1CCN(C(=O)Cn2cc(Nc3nc4c(N5CC6CCC(C5)N6C(=O)c5ccns5)cccn4n3)cn2)CC1 [Example 87, 2-[4-[[8-[8-(isothiazole-5-carbonyl)-3,8-diazabicyclo[3.2.1]octan-3-yl]-[1,2,4]triazolo[1,5-a]pyridin-2-yl]amino]pyrazol-1-yl]-1-(4-methylpiperazin-1-yl)ethanone] | 0.9 | 0.6 |
| CN1CCN(C(=O)Cn2cc(Nc3nc4c(N5CC6CCC(C5)N6S(=O)(=O)c5cccc(Cl)c5)cccn4n3)cn2)CC1 [Example 88, 2-[4-[[8-[8-(3-chlorophenyl)sulfonyl-3,8-diazabicyclo[3.2.1]octan-3-yl]-[1,2,4]triazolo[1,5-a]pyridin-2-yl]amino]pyrazol-1-yl]-1 - (4-methylpiperazin-1-yl)ethanone] | 0.3 | 0.3 |
| CN1CCN(C(=O)Cn2cc(Nc3nc4c(N5CC6CCC(C5)N6C(=O)c5ccc(Cl)cc5)cccn4n3)cn2)CC1 [Example 89] | 13.4 | 3.1 |
| CN1CCN(C(=O)Cn2cc(Nc3nc4c(N5CC6CCC(C5)N6C(=O)c5cccc(Cl)c5)cccn4n3)cn2)CC1 [Example 90, 2-[4-[[8-[8-(3-chlorobenzoyl)-3,8-diazabicyclo[3.2.1]octan-3-yl]-[1,2,4]triazolo[1,5-a]pyridin-2-yl]amino]pyrazol-1-yl]-1-(4-methylpiperazin-1-yl)ethanone] | 2.3 | 0.8 |
| CN1CCN(C(=O)Cn2cc(Nc3nc4c(N5CC6CCC(C5)N6C(=O)CC5CC(F)(F)C5(F)F)cccn4n3)cn2)CC1 (stereo not drawn) [Example 91, 1-[3-[2-[[1-[2-(4-methylpiperazin-1-yl)-2-oxo-ethyl]pyrazol-4-yl]amino]-[1,2,4]triazolo[1,5-a]alpyridin-8-yl]-3,8-diazabicyclo[3.2.1]octan-8-yl]-2(2,2,3,3-tetrafluorocyclobutyl) ethanone] | 0.9 | 0.8 |
| CN1CCN(C(=O)Cn2cc(Nc3nc4c(N5CC6CCC(C5)N6C(=O)C5CC(C#N)C5)cccn4n3)cn2)CC1 (stereo not drawn) [Example 92, 3-[3-[2-[[1-[2-(4-methylpiperazin-1-yl)-2-oxo-ethyl]pyrazol-4-yl]amino]-[1,2,4]triazolo[1,5-a]pyridin-8-yl]-3,8-diazabicyclo[3.2.1]octane-8-carbonyl]cyclo-butanecarbonitrile] | 1.7 | 0.9 |
| CN1CCN(C(=O)Cn2cc(Nc3nc4c(N5CC6CCC(C5)N6S(=O)(=O)c5ccc(Cl)cc5)cccn4n3)cn2)CC1 [Example 93, 2-[4-[[8-[8-(4-chlorophenyl)sulfonyl-3,8-diazabicyclo[3.2.1]octan-3-yl]-[1,2,4]triazolo[1,5-a]pyridin-2-yl]amino]pyrazol-1-yl]-1-(4-methylpiperazin-1-yl)ethanone] | 0.8 | 0.3 |
| O=C(Cn1cc(Nc2nc3c(N4CC5CCC(C4)N5C(=O)N4CC(C(F)(F)F)C4)cccn3n2)cn1)N1CCN(C2CSC2)CC1 [Example 94, 1-[4-(thietan-3-yl)piperazin-1-yl]-2-[4-[[8-[8-[3-(trifluoromethyl)azetidine-1-carbonyl]-3,8-diazabicyclo[3.2.1]octan-3-yl]-[1,2,4]triazolo[1,5-a]pyridin-2-yl]amino]pyrazol-1-yl]ethanone] | 0.4 | 0.6 |
| CN1CCN(C(=O)Cn2cc(Nc3nc4c(N5C[C@H]6CC[C@@H](C5)[C@H]6OCc5cnn(C)c5)cccn4n3)cn2)CC1 [Example 95, 1-(4-methylpiperazin-1-yl)-2-[4-[[8-[(1S,5R)-8-[(1-methylpyrazol-4-yl)methoxy]-3-azabicyclo[3.2.1]octan-3-yl]-[1,2,4]triazolo[1,5-a]pyridin-2-yl]amino]pyrazol-1-yl]ethanone] | 5 | 2.3 |
| CN1CCN(C(=O)Cn2cc(Nc3nc4c(N5CC6CCCC(C5)N6C(=O)C5CSC5)cccn4n3)cn2)CC1 [Example 96, 1-(4-methylpiperazin-1-yl)-2-[4-[[8-[9-(thietane-3-carbonyl)-3,9-diazabicyclo[3.3.1]nonan-3-yl]-[1,2,4]triazolo[1,5-a]pyridin-2-yl]amino]pyrazol-1-yl]ethanone] | 0.5 | 0.4 |
| CN1CCN(C(=O)Cn2cc(Nc3nc4c(N5CC6CCCC(C5)N6C(=O)CC5CC(F)(F)C5)cccn4n3)cn2)CC1 [Example 97, 2-(3,3-difluorocyclobutyl)-1-[3-[2-[[1-[2-(4-methylpiperazin-1-yl)-2-oxo-ethyl]pyrazol-4-yl]amino]-[1,2,4]triazolo[1,5-a]pyridin-8-yl]-3,9-diazabicyclo[3.3.1]nonan-9-yl]ethanone] | 0.5 | 0.6 |
| CN1CCN(C(=O)Cn2cc(Nc3nc4c(N5CC6CCC(C5)N6CC(F)(F)F)cccn4n3)cn2)CC1 [Example 98, 1-(4-methylpiperazin-1-yl)-2-[4-[[8-[8-(2,2,2-trifluoroethyl)-3,8-diazabicyclo[3.2.1]octan-3-yl]-[1,2,4]triazolo[1,5-a]pyridin-2-yl]amino]pyrazol-1-yl]ethanone] | 4.1 | 2.1 |
| CSc1ccc(C(=O)N2C3CCC2CN(c2cccn4nc(Nc5cnn(CC(=O)N6CCN(C)CC6)c5)nc24)C3)cc1 [Example 99, 1-(4-methylpiperazin-1-yl)-2-[4-[[8-[8-(4-methylsulfanylbenzoyl)-3,8-diazabicyclo[3.2.1]octan-3-yl]-[1,2,4]triazolo[1,5-a]pyridin-2-yl]amino]pyrazol-1-yl]ethanone] | 5.4 | 1.6 |
| CSc1cccc(C(=O)N2C3CCC2CN(c2cccn4nc(Nc5cnn(CC(=O)N6CCN(C)CC6)c5)nc24)C3)c1 [Example 100, 1-(4-methylpiperazin-1-yl)-2-[4-[[8-[8-(3-methylsulfanylbenzoyl)-3,8-diazabicyclo[3.2.1]octan-3-yl]-[1,2,4]triazolo[1,5-a]pyridin-2-yl]amino]pyrazol-1-yl]ethanone] | 4.2 | 1.2 |
| CN1CCN(C(=O)Cn2cc(Nc3nc4c(N5CC6CCC(C5)N6Cc5cnc(CC(F)(F)F)s5)cccn4n3)cn2)CC1 [Example 101, 1-(4-methylpiperazin-1-yl)-2-[4-[[8-[8-[[2-(2,2,2-trifluoroethyl)thiazol-5-yl]methyl]-3,8-diazabicyclo[3.2.1]octan-3-yl]-[1,2,4]triazolo[1,5-a]pyridin-2-yl]amino]pyrazol-1-yl]ethanone] | 10.3 | 2.9 |
